These results are taken from ChEMBL document CHEMBL5375951, “Beware the Receptor Variants” (J Med Chem, 2023).

The nature of experiment [1]: Agonist activity at MRGPRX4 83L expressed in human HEK293 cells co- expressing Gq assessed as change in intracellular calcium level by calcium mobilization assay. Type of experiment: cell-based. In general terms: A change in cytosolic calcium serves as a functional read-out for many receptors and channels.
Experiment [2] is described as follows: Agonist activity at MRGPRX4 83S expressed in human HEK293 cells co- expressing Gq assessed as change in intracellular calcium level by calcium mobilization assay. Type of experiment: cell-based.

What is called EC50 is the concentration that produces a half-maximal response. On to `C[C@H](CCC(=O)NCCS(=O)(=O)O)[C@H]1CC[C@H]2[C@@H]3CC[C@@H]4C[C@H](O)CC[C@]4(C)[C@H]3C[C@H](O)[C@]12C` [TAURODEOXYCHOLIC ACID], for which the EC50 in experiment [1] and in experiment [2] was over 10 µM in each case.

For the molecule `COc1cccc(CCc2nc3c([nH]2)c(=O)n(CC#N)c(=O)n3CCCCP(=O)(O)O)c1`, the results for the EC50 in experiment [1] and in experiment [2] were 0.435 µM and 0.0112 µM, respectively. Turning to `CC12CC3CC(C)(C1)CC(C(=O)N[C@H](Cc1ccccc1)C(=O)O)(C3)C2`, the EC50 turned out to be 0.00656 µM in experiment [1] and 13.3 µM in experiment [2]. On to `C[C@H](CCC(=O)O)[C@H]1CC[C@H]2[C@@H]3CC[C@@H]4C[C@H](O)CC[C@]4(C)[C@H]3C[C@H](O)[C@]12C` [DEOXYCHOLIC ACID], for which, in experiment [2], the EC50 was determined as 16.9 µM.

In the case of `CC(C)[C@H]1CC[C@H](C(=O)N[C@H](Cc2ccccc2)C(=O)O)CC1` [NATEGLINIDE], the EC50 in experiment [2] is over 10 µM.
